Results published in patent publication US8729017B2 (priority 2011, dated 2014).
Numbered stars: 1 amine (or outer) side, 2 acyl side, 3 side chain; on linkers, the order of the positions; unused ones are H or OH. Square brackets hold non-standard residues; d marks the D form. Side chains are listed from the residue outwards. Peptide text beside a SMILES is read from it. * marks the point of attachment. γGlu = O=C(O)[C@H](CCC(=O)[*:2])N[*:1]; Palmitoyl = CCCCCCCCCCCCCCCC(=O)*; Aib = CC(C)(N)C(=O)O

Experiments:
Type in all cases: cell-based
[1] = target: T1, glucagon receptor (Homo sapiens, UniProt P47871); experiment: cAMP induction, firefly luciferase reporter assay in HEK293 cells co-transfected with the glucagon receptor; settings: HEK293 cells, cAMP-responsive luciferase reporter, 5 hours incubation
T1 construct: expressed in transfected cells; host or cells: HEK293
Protocol: (§1) The ability of each peptide to induce cAMP was measured in a firefly luciferase-based reporter assay. […] At the end of the incubation, 100 μL of LucLite luminescence substrate reagent (Perkin Elmer, Wellesley, Mass.) were added to each well. […] In some instances, the in vitro agonist activity at the GIP receptor was also tested.

[2] = target: T2, GLP-1 receptor (Homo sapiens, UniProt P43220); experiment: cAMP induction, firefly luciferase reporter assay in HEK293 cells co-transfected with the GLP-1 receptor; settings: HEK293 cells, cAMP-responsive luciferase reporter, 5 hours incubation
T2 construct: expressed in transfected cells; host or cells: HEK293
Protocol: as §1

[3] = target: T3, GIP receptor (Homo sapiens, UniProt P48546); experiment: in vitro agonist activity at the GIP receptor (cAMP luciferase reporter, HEK293 cells); settings: in vitro agonist activity; read-out: EC50 (nM) at GIP receptor
T3 construct: expressed in transfected cells; host or cells: HEK293
T3 sequence (P48546 22-466): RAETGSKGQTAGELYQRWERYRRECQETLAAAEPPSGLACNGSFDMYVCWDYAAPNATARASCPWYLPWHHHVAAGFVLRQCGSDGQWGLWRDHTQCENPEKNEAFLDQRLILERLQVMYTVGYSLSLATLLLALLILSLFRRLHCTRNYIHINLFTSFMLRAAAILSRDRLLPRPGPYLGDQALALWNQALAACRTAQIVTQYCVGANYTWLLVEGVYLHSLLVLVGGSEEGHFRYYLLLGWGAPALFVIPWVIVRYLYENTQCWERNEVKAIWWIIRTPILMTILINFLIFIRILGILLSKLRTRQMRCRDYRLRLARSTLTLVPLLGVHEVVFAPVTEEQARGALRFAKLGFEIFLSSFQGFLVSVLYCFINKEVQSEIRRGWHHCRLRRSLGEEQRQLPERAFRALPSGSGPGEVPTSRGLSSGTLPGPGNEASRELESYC
Protocol: as §1, with “It is understood that a lower EC50 indicates higher activity or potency at the receptor. […] The” for “The”

T1 sequence (P47871 26-477, species assumed): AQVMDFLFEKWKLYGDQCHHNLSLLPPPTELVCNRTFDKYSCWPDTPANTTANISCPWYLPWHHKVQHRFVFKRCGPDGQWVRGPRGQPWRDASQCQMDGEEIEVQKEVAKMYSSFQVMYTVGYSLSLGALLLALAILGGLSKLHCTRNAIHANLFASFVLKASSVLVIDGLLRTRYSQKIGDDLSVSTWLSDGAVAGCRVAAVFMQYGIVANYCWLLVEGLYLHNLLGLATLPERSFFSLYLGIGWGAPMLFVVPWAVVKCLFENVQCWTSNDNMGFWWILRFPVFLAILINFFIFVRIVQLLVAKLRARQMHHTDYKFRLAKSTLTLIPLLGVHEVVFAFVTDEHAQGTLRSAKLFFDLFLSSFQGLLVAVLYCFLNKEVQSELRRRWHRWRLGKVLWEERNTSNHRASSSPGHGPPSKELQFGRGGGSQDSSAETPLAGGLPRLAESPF
T2 sequence (P43220 24-463): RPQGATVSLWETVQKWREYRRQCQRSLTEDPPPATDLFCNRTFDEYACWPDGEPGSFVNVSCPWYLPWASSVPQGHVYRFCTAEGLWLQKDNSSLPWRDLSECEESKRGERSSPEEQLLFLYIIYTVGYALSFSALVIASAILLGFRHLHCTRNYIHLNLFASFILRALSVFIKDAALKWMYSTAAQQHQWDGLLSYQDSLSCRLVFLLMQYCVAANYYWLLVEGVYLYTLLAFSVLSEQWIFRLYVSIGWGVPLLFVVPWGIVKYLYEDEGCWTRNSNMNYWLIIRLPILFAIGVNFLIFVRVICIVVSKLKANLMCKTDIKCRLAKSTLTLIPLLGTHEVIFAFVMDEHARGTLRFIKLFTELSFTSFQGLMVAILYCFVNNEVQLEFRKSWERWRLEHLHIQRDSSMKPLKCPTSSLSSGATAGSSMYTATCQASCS

EC50 [1]	EC50 [2]	EC50 [3]	Compound
0.035 nM	0.003 nM	2.36 nM	CCCCCCCCCCCCCCCC(=O)N[C@@H](CCC(=O)N[C@@H](CCC(=O)NCCCC[C@H](NC(=O)[C@H](CC(=O)O)NC(=O)[C@H](CO)NC(=O)[C@@H](NC(=O)[C@H](Cc1ccccc1)NC(=O)[C@@H](NC(=O)CNC(=O)[C@H](CCC(N)=O)NC(=O)C(C)(C)NC(=O)[C@@H](N)Cc1c[nH]cn1)[C@@H](C)O)[C@@H](C)O)C(=O)N[C@@H](CO)C(=O)N[C@@H](CCCCN)C(=O)N[C@@H](Cc1ccc(O)cc1)C(=O)N[C@@H](CC(C)C)C(=O)N[C@@H](CC(=O)O)C(=O)NC(C)(C)C(=O)N[C@@H](CCCNC(=N)N)C(=O)N[C@@H](C)C(=O)N[C@@H](C)C(=O)N[C@@H](CCC(N)=O)C(=O)N[C@@H](CC(=O)O)C(=O)N[C@@H](Cc1ccccc1)C(=O)N[C@H](C(=O)N[C@@H](CCC(N)=O)C(=O)N[C@@H](Cc1c[nH]c2ccccc12)C(=O)N[C@@H](CC(C)C)C(=O)N[C@@H](CCCCN)C(=O)N[C@@H](CC(=O)O)C(=O)NCC(=O)N[C@@H](CCCNC(=N)N)C(=O)N1CCC[C@H]1C(N)=O)C(C)C)C(=O)O)C(=O)O [compound 25] (H-H[Aib]QGTFTSDK([γGlu-γGlu-Palmitoyl])SKYLD[Aib]RAAQDFVQWLKDGRP-NH2)
0.016 nM	0.007 nM	2.34 nM	CCCCCCCCCCCCCCCC(=O)N[C@@H](CCC(=O)N[C@@H](CCC(=O)NCCCC[C@H](NC(=O)[C@H](CC(=O)O)NC(=O)[C@H](CO)NC(=O)[C@@H](NC(=O)[C@H](Cc1ccccc1)NC(=O)[C@@H](NC(=O)CNC(=O)[C@H](CCC(N)=O)NC(=O)C(C)(C)NC(=O)[C@@H](N)Cc1c[nH]cn1)[C@@H](C)O)[C@@H](C)O)C(=O)N[C@@H](CO)C(=O)N[C@@H](CCCCN)C(=O)N[C@@H](Cc1ccc(O)cc1)C(=O)N[C@@H](CC(C)C)C(=O)N[C@@H](CC(=O)O)C(=O)NC(C)(C)C(=O)N[C@@H](CCCNC(=N)N)C(=O)N[C@@H](C)C(=O)N[C@@H](C)C(=O)N[C@@H](CCC(N)=O)C(=O)N[C@@H](CC(=O)O)C(=O)N[C@@H](Cc1ccccc1)C(=O)N[C@H](C(=O)N[C@@H](CCC(N)=O)C(=O)N[C@@H](Cc1c[nH]c2ccccc12)C(=O)N[C@@H](CC(C)C)C(=O)N[C@@H](CCSC)C(=O)N[C@@H](CCCCN)C(=O)NCC(=O)N[C@@H](CCCNC(=N)N)C(=O)NCC(=O)O)C(C)C)C(=O)O)C(=O)O [compound 31] (H-H[Aib]QGTFTSDK([γGlu-γGlu-Palmitoyl])SKYLD[Aib]RAAQDFVQWLMKGRG-OH; N-terminus assumed)
0.106 nM	0.004 nM	3.29 nM	CCCCCCCCCCCCCCCC(=O)N[C@@H](CCC(=O)N[C@@H](CCC(=O)NCCCC[C@H](NC(=O)[C@H](CC(=O)O)NC(=O)[C@H](CO)NC(=O)[C@@H](NC(=O)[C@H](Cc1ccccc1)NC(=O)[C@@H](NC(=O)CNC(=O)[C@H](CCC(N)=O)NC(=O)C(C)(C)NC(=O)[C@@H](N)Cc1c[nH]cn1)[C@@H](C)O)[C@@H](C)O)C(=O)N[C@@H](CO)C(=O)N[C@@H](CCCCN)C(=O)N[C@@H](Cc1ccc(O)cc1)C(=O)N[C@@H](CC(C)C)C(=O)N[C@@H](CC(=O)O)C(=O)NC(C)(C)C(=O)N[C@@H](CCCNC(=N)N)C(=O)N[C@@H](C)C(=O)N[C@@H](C)C(=O)N[C@@H](CCC(N)=O)C(=O)N[C@@H](CC(=O)O)C(=O)N[C@@H](Cc1ccccc1)C(=O)N[C@H](C(=O)N[C@@H](CCC(N)=O)C(=O)N[C@@H](Cc1c[nH]c2ccccc12)C(=O)N[C@@H](CC(C)C)C(=O)N[C@@H](CCCCN)C(=O)NC(C)(C)C(=O)NCC(=O)N[C@@H](CCCNC(=N)N)C(=O)NCC(N)=O)C(C)C)C(=O)O)C(=O)O [compound 26] (H-H[Aib]QGTFTSDK([γGlu-γGlu-Palmitoyl])SKYLD[Aib]RAAQDFVQWLK[Aib]GRG-NH2; N-terminus assumed)

The remaining lines, values behind:

Compound	EC50 [1]	EC50 [2]	EC50 [3]
CCCCCCCCCCCCCCCC(=O)N[C@@H](CCC(=O)NCCCC[C@H](NC(=O)[C@H](CC(=O)O)NC(=O)[C@H](CO)NC(=O)[C@@H](NC(=O)[C@H](Cc1ccccc1)NC(=O)[C@@H](NC(=O)CNC(=O)[C@H](CCC(N)=O)NC(=O)[C@@H](CO)NC(=O)[C@@H](N)Cc1c[nH]cn1)[C@@H](C)O)[C@@H](C)O)C(=O)N[C@@H](CO)C(=O)N[C@@H](CCCCN)C(=O)N[C@@H](Cc1ccc(O)cc1)C(=O)N[C@@H](CC(C)C)C(=O)N[C@@H](CC(=O)O)C(=O)N[C@@H](CCC(=O)O)C(=O)N[C@@H](CCCNC(=N)N)C(=O)N[C@@H](C)C(=O)N[C@@H](C)C(=O)N[C@@H](CCC(N)=O)C(=O)N[C@@H](CC(=O)O)C(=O)N[C@@H](Cc1ccccc1)C(=O)N[C@H](C(=O)N[C@@H](CCC(N)=O)C(=O)N[C@@H](Cc1c[nH]c2ccccc12)C(=O)N[C@@H](CC(C)C)C(=O)N[C@@H](CC(C)C)C(=O)N[C@@H](CCCCN)C(=O)NCC(=O)N[C@@H](CCCNC(=N)N)C(=O)NCC(N)=O)C(C)C)C(=O)O [compound 27]	0.022 nM	0.005 nM	2.12 nM
CCCCCCCCCCCCCCCC(=O)N[C@@H](CCC(=O)NCCCC[C@H](NC(=O)[C@H](CC(=O)O)NC(=O)[C@H](CO)NC(=O)[C@@H](NC(=O)[C@H](Cc1ccccc1)NC(=O)[C@@H](NC(=O)CNC(=O)[C@H](CCC(N)=O)NC(=O)C(C)(C)NC(=O)[C@@H](N)Cc1c[nH]cn1)[C@@H](C)O)[C@@H](C)O)C(=O)N[C@@H](CO)C(=O)N[C@@H](CCCCN)C(=O)N[C@@H](Cc1ccc(O)cc1)C(=O)N[C@@H](CC(C)C)C(=O)N[C@@H](CC(=O)O)C(=O)NC(C)(C)C(=O)N[C@@H](CCCNC(=N)N)C(=O)N[C@@H](C)C(=O)N[C@@H](C)C(=O)N[C@@H](CCC(N)=O)C(=O)N[C@@H](CC(=O)O)C(=O)N[C@@H](Cc1ccccc1)C(=O)N[C@H](C(=O)N[C@@H](CCC(N)=O)C(=O)N[C@@H](Cc1c[nH]c2ccccc12)C(=O)N[C@@H](CC(C)C)C(=O)N[C@@H](CCSC)C(=O)N[C@@H](CCCCN)C(=O)N[C@H](C(=O)N[C@@H](CCCCN)C(=O)N[C@H](CCC(=O)O)C(=O)O)[C@@H](C)O)C(C)C)C(=O)O [compound 60] (H-H[Aib]QGTFTSDK([γGlu-Palmitoyl])SKYLD[Aib]RAAQDFVQWLMKTK[dE]-OH; N-terminus assumed)	4.6 nM	0.033 nM	147 nM
CCCCCCCCCCCCCCCC(=O)N[C@@H](CCC(=O)NCCCC[C@H](NC(=O)[C@H](CC(=O)O)NC(=O)[C@H](CO)NC(=O)[C@@H](NC(=O)[C@H](Cc1ccccc1)NC(=O)[C@@H](NC(=O)CNC(=O)[C@H](CCC(N)=O)NC(=O)[C@@H](CO)NC(=O)CCc1c[nH]cn1)[C@@H](C)O)[C@@H](C)O)C(=O)N[C@@H](CO)C(=O)N[C@@H](CCCCN)C(=O)N[C@@H](Cc1ccc(O)cc1)C(=O)N[C@@H](CC(C)C)C(=O)N[C@@H](CC(=O)O)C(=O)N[C@@H](CCC(=O)O)C(=O)N[C@@H](CCCNC(=N)N)C(=O)N[C@@H](C)C(=O)N[C@@H](C)C(=O)N[C@@H](CCC(N)=O)C(=O)N[C@@H](CC(=O)O)C(=O)N[C@@H](Cc1ccccc1)C(=O)N[C@H](C(=O)N[C@@H](CCC(N)=O)C(=O)N[C@@H](Cc1c[nH]c2ccccc12)C(=O)N[C@@H](CC(C)C)C(=O)N[C@@H](CC(C)C)C(=O)N[C@@H](CC(=O)O)C(=O)N[C@H](C(N)=O)[C@@H](C)O)C(C)C)C(=O)O [compound 20]	0.006 nM	0.004 nM	1.38 nM
CCCCCCCCCCCCCCCC(=O)N[C@@H](CCC(=O)NCCCC[C@H](NC(=O)[C@H](CC(=O)O)NC(=O)[C@H](CO)NC(=O)[C@@H](NC(=O)[C@H](Cc1ccccc1)NC(=O)[C@@H](NC(=O)CNC(=O)[C@H](CCC(N)=O)NC(=O)C(C)(C)NC(=O)[C@@H](N)Cc1c[nH]cn1)[C@@H](C)O)[C@@H](C)O)C(=O)N[C@@H](CO)C(=O)N[C@@H](CCCCN)C(=O)N[C@@H](Cc1ccc(O)cc1)C(=O)N[C@@H](CC(C)C)C(=O)N[C@@H](CC(=O)O)C(=O)NC(C)(C)C(=O)N[C@@H](CCCNC(=N)N)C(=O)N[C@@H](C)C(=O)N[C@@H](C)C(=O)N[C@@H](CCC(N)=O)C(=O)N[C@@H](CC(=O)O)C(=O)N[C@@H](Cc1ccccc1)C(=O)N[C@H](C(=O)N[C@@H](CCC(N)=O)C(=O)N[C@@H](Cc1c[nH]c2ccccc12)C(=O)N[C@@H](CC(C)C)C(=O)N[C@@H](CC(C)C)C(=O)N[C@@H](CC(=O)O)C(=O)NCC(=O)N[C@@H](CCCNC(=N)N)C(=O)NCC(N)=O)C(C)C)C(=O)O [compound 30] (H-H[Aib]QGTFTSDK([γGlu-Palmitoyl])SKYLD[Aib]RAAQDFVQWLLDGRG-NH2)	0.933 nM	0.0082 nM	9.06 nM
